In EP1358888A1, “The human peptide antibiotic LL-37/hCAP-18 is an inducer of angiogenesis” (priority 2002, dated 2003):
Entries after “also recorded” stand apart in the source; their conditions may differ. Like-named read-outs stand apart in the source and are kept apart here.

Test system: HUVECs
Experiment: Inhibition experiments: signalling inhibitors on LL-37/hCAP-18-induced endothelial proliferation
Type: cell-based, human
Experimental: Stimulation of angiogenesis by LL-37/hCAP-18 in vitro. a, In vitro proliferation assays. HUVECs were seeded on six well plastic dishes and cultivated in serum free medium. Different concentrations of LL-37/hCAP-18 and control peptides were added to the culture medium. Figures on the left hand side indicate the numbers of cells per µl of volume after 72 h. VEGF was used as positive control. […] A significance level of P < 0.05 is labeled with **.b. […] HUVECs were seeded on Matrigel support and cultivated in serum free medium in the absence (c) or presence (d) of 0.5 µg/ml LL-37/hCAP-18. After 18 h, the cultures were inspected for the formation of rings and cords. Representative figures are shown.
Endothelial cells from human umbilical veins (HUVEC) were isolated as described before ^8. 10^4 cells were seeded on six well plastic dishes in serum free medium. Different concentrations of LL-37 were added to the culture medium. VEGF (5 ng / ml, 165 amino acid variant, Sigma Chemicals, Munich, Germany) was used as positive control. After 72 h the cells were detached from the support and counted. Experiments were repeated ten times using synthetic LL-37/hCAP-18 (37 C-terminal amino acids) and the hexapeptide WKYMVm, wherein "m" denotes the D-form of the amino acid methionine, from two different sources (IPF Pharmaceuticals, Hannover, Germany and Institute for Biochemistry, Humboldt-University of Berlin, Germany). As control peptide we used the peptide L-14 […] to have any interactions with FPRL1 from the same source (Humboldt-University). Human serum (10 %, donor with ABO blood group O) was applied under the same conditions to analyze any impact on induction of proliferation by LL-37. For inhibition experiments we applied inhibitors of G-protein coupled receptors (pertussis toxin, 10 ng/ml), PI-3K (wortmannin), and PKC (GF 109203X). For Matrigel assays HUVECs were seeded on Matrigel support (Beckton Dickinson, Franklin Lakes, NJ) and cultivated in serum free medium in the absence or presence of 0.5 µg/ml LL-37. After 18 h, the cultures were inspected for the formation of rings and cords. Experiments were repeated three times. We measured the ability of LL-37/hCAP-18 to accelerate proliferation of HUVECs in a proliferation assay. […] WKYMVm is a specific agonist for FPRL1 ^10.
As a next step we analyzed which mechanisms might be involved in the angiogenic activity of LL-37/hCAP-18. We applied inhibitors of G-protein coupled receptors (pertussis toxin), PI-3K (wortmannin), and PKC (GF 109203X) and monitored cell proliferation as outcome parameter.

| Compound | effect of inhibitor on proliferative response induced by LL-37/hCAP-18 (preincubation of endothelial cells with inhibitor (pertussis toxin 10 ng/ml)) | effect of inhibitor on baseline cell proliferation (without LL-37/hCAP-18) | effect of inhibitor on baseline cell proliferation | effect of inhibitor on proliferative response induced by LL-37/hCAP-18 |
| --- | --- | --- | --- | --- |
| CN(C)CCCn1cc(C2=C(c3c[nH]c4ccccc34)C(=O)NC2=O)c2ccccc21 [GF 109203X] | inhibition of the proliferative response; also recorded: inhibited activities of LL-37/hCAP-18 on endothelial proliferation | no effect on the baseline measurements | – | – |
| COC[C@H]1OC(=O)c2coc3c2[C@@]1(C)C1=C(C3=O)[C@@H]2CCC(=O)[C@@]2(C)C[C@H]1OC(C)=O [wortmannin] | – | – | no effect on the baseline measurements | inhibition of the proliferative response; also recorded: inhibited activities of LL-37/hCAP-18 on endothelial proliferation |
